Earlier results in patent US4898737A, “Controlled absorption pharmaceutical composition” (Elan Corporation plc, priority 1983, dated 1990).

Which results are given for `CC(C)NCC(O)COc1cccc2ccccc12` (stereo not drawn) [propranolol, 1-(isopropylamino)-3-(1-naphthyloxy)-2-propanol]?
time of peak plasma concentrations (after a single oral dose): one to two; metabolism (oral): extensively and rapidly metabolised; urinary excretion (oral): excreted in the urine as free and conjugated propranolol and as metabolites
